Results from US5330973A, “Lipopeptide derivatives” (Merck & Co., Inc., priority 1990, dated 1994).

How the values were obtained:
[1] = test system: Pneumocystis carinii; experiment: Pneumocystis carinii pneumonia in immunosuppressed rats, elimination of cysts; format: in vivo, Sprague-Dawley rats; conditions: I.P. twice daily for four days, lungs read by microscopic analysis of stained slides
Experimental: In a representative study, the effectiveness of Compound A-2a was determined. Sprague-Dawley rats (weighing approximately 250 grams) were immuno-suppressed with dexasone in the drinking water (2.0 mg/L) and maintained on a low protein diet for five weeds to induce the development of pneumocystis pneumonia from a latent infection. […] Six rats (weighing approximately 150 grams) were injected twice daily for four days intraperitoneally (I.P.) with Compound A-2a in 0.25 ml of vehicle (distilled water). A vehicle control was also carried out. All animals continued to receive dexasone in the drinking water and low protein diet during the treatment period. At the completion of the treatment, all animals were sacrificed, the lungs were removed and processed, and the extent of disease determined by microscopic analysis of stained slides.
In a similar experiment, the animals were sacrificed, the lungs removed and processed, and the extent of disease determined by microscopic analysis of stained slides.

[2] = test system: C. albicans; experiment: Minimum fungicidal concentration, microbroth dilution assay in YNBD; format: cell-based
Experimental: (§1) The compounds of the present invention are active against many fungi and particularly against Candida species. […] In carrying out the assay, Compound A-2a and A-3a were solubilized in 10% dimethyl sulfoxide (DMSO) and diluted to 2560 μg/ml. The compounds were then diluted to 256 μg/ml in YNBD. […] of the suspension was dispensed to the top row of a 96-well plate (each well containing 0.15 ml of YNDB) resulting in a drug concentration of 128 μg/ml. Two-fold dilutions were then made from the top row to obtain final drug concentrations ranging from 128 to 0.06 μg/ml. The yeast cultures, maintained on Sabouraud dextrose agar were transferred to YM broth (Difco) and incubated overnight at 35° C. with shaking (250 rpm). […] The microplates were incubated at 35° C. for 24 hours. The minimum inhibitory concentrations (MICs) were recorded as the lowest concentrations of drug showing no visible growth. After recording the MIC, the plates were shaken to resuspend the cells. Thereafter, […] samples from the wells in the 96-well microplate were transferred to a single well tray containing Sabouraud dextrose agar. The inoculated trays were incubated 24 hours at 28° C. and then read. […]

[3] = test system: C. parapsilosis; experiment: as above; format: cell-based; conditions: C. parapsilosis MY 1010
Experimental: as §1

[4] = test system: C. tropicalis; experiment: as above; format: cell-based; conditions: C. tropicalis MY 1012
Experimental: as §1

Substance: 1-[4-hydroxy-N2-(10,12-dimethyl-1-oxotetradecyl)-ornithine]-4-[3-hydroxy-4' -O-phosphoryl-homotyrosine]-5-[3-hydroxyglutamine]echinocandin B [Compound A-2a]
- ED90 for eliminating P. carinii cysts [1]: approximately 2 mg/kg
- Minimum Fungicidal Concentration ([2]; C. albicans MY 1028): 1 µg/mL
- Minimum Fungicidal Concentration ([2]; C. albicans MY 1055): 1 µg/mL
- Minimum Fungicidal Concentration ([2]; C. albicans MY 1208): 1 µg/mL
- Minimum Fungicidal Concentration [3]: 16 µg/mL
- Minimum Fungicidal Concentration [4]: 0.5 µg/mL

Substance: 1-[N2-(10,12-dimethyl-1-oxotetradecyl)-ornithine]-4-[3,4-dihydroxy-4'-O-pho sphoryl-homotyrosine]-5-[3-hydroxyglutamine] echinocandin B [Compound A-3a]
- ED90 for eliminating P. carinii cysts [1]: approximately 2.5 mg/kg
- Minimum Fungicidal Concentration ([2]; C. albicans MY 1028): 4 µg/mL
- Minimum Fungicidal Concentration ([2]; C. albicans MY 1055): 2 µg/mL
- Minimum Fungicidal Concentration ([2]; C. albicans MY 1208): 4 µg/mL
- Minimum Fungicidal Concentration [3]: > 128 µg/mL
- Minimum Fungicidal Concentration [4]: 1 µg/mL
